Experimental data published in ChEMBL document CHEMBL1201862, “PubChem BioAssay data set” (2004).
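Tested at 5 concentrations; 48 h exposure; 96-well plates; endpoints linearly interpolated, else capped at highest concentration. GI50 is the concentration that inhibits growth by half.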 Active and inactive are the calls of the source. No stated cut-off is given here; in the data, active = GI50 up to about 1.1 µM and inactive = higher.

What was measured:
Assay in all cases: NCI tumour cell line growth inhibition, 48 h
[1] = test system: 786-0
[2] = test system: A549
[3] = test system: ACHN
[4] = test system: CAKI-1
[5] = test system: DLD-1
[6] = test system: DMS-273
[7] = test system: EKVX
[8] = test system: HCC 2998
[9] = test system: HCT-116
[10] = test system: HCT-15
[11] = test system: HOP-62
[12] = test system: HOP-92
[13] = test system: HT-29
[14] = test system: IGROV-1
[15] = test system: KM-20L2
[16] = test system: KM12
[17] = test system: LOX IMVI
[18] = test system: LXFL 529
[19] = test system: M14
[20] = test system: M19-MEL
[21] = test system: NCI-H23
[22] = test system: NCI-H460
[23] = test system: NCI-H522
[24] = test system: OVCAR-3
[25] = test system: OVCAR-4
[26] = test system: OVCAR-8
[27] = test system: SF-268
[28] = test system: SF-295
[29] = test system: SF-539
[30] = test system: SK-MEL-28
[31] = test system: SK-MEL-2
[32] = test system: SK-MEL-5
[33] = test system: SN12C
[34] = test system: SNB-19
[35] = test system: SNB-78
[36] = test system: SW-620
[37] = test system: TK-10
[38] = test system: U-251
[39] = test system: UACC-257
[40] = test system: UACC-62
[41] = test system: UO-31
[42] = test system: A498
[43] = test system: CCRF-CEM
[44] = test system: DMS-114
[45] = test system: HL-60
[46] = test system: HOP-18
[47] = test system: K562
[48] = test system: MOLT-4
[49] = test system: Malme-3M
[50] = test system: NCI-H226
[51] = test system: OVCAR-5
[52] = test system: RPMI-8226
[53] = test system: RXF 393
[54] = test system: SK-OV-3
[55] = test system: SNB-75
[56] = test system: SR

Cc1ccc(C(=O)NC(C)C)cc1/N=N/N(C)C
GI50 [1]: > 100 µM (inactive) | GI50 [2]: > 100 µM (inactive) | GI50 [3]: > 100 µM (inactive) | GI50 [4]: > 100 µM (inactive) | GI50 [5]: 65 µM (inactive) | GI50 [6]: > 100 µM (inactive) | GI50 [7]: > 100 µM (inactive) | GI50 [8]: > 100 µM (inactive) | GI50 [9]: > 100 µM (inactive) | GI50 [10]: > 100 µM | GI50 [11]: > 100 µM (inactive) | GI50 [12]: > 100 µM (inactive) | GI50 [13]: > 100 µM (inactive) | GI50 [14]: > 100 µM (inactive) | GI50 [15]: > 100 µM (inactive) | GI50 [16]: > 100 µM (inactive) | GI50 [17]: > 100 µM (inactive) | GI50 [18]: > 100 µM (inactive) | GI50 [19]: > 100 µM (inactive) | GI50 [20]: > 100 µM (inactive) | GI50 [21]: > 100 µM (inactive) | GI50 [22]: > 100 µM (inactive) | GI50 [23]: > 100 µM (inactive) | GI50 [24]: > 100 µM (inactive) | GI50 [25]: > 100 µM (inactive) | GI50 [26]: > 100 µM (inactive) | GI50 [27]: > 100 µM (inactive) | GI50 [28]: > 100 µM (inactive) | GI50 [29]: > 100 µM (inactive) | GI50 [30]: > 100 µM (inactive) | GI50 [31]: > 100 µM (inactive) | GI50 [32]: > 100 µM (inactive) | GI50 [33]: > 100 µM (inactive) | GI50 [34]: > 100 µM (inactive) | GI50 [35]: > 100 µM (inactive) | GI50 [36]: > 100 µM (inactive) | GI50 [37]: > 100 µM (inactive) | GI50 [38]: > 100 µM (inactive) | GI50 [39]: > 100 µM (inactive) | GI50 [40]: > 100 µM (inactive) | GI50 [41]: > 100 µM (inactive)

C=CC[P@]1(=O)O[C@H](c2ccccc2)[C@H](C)N1C
GI50 [1]: > 100 µM (inactive) | GI50 [42]: > 100 µM (inactive) | GI50 [2]: > 100 µM (inactive) | GI50 [3]: > 100 µM (inactive) | GI50 [43]: > 100 µM (inactive) | GI50 [5]: > 100 µM (inactive) | GI50 [44]: > 100 µM (inactive) | GI50 [6]: > 100 µM (inactive) | GI50 [7]: > 100 µM (inactive) | GI50 [8]: > 100 µM (inactive) | GI50 [10]: > 100 µM | GI50 [45]: > 100 µM (inactive) | GI50 [46]: 79.1 µM (inactive) | GI50 [13]: > 100 µM (inactive) | GI50 [14]: > 100 µM (inactive) | GI50 [47]: > 100 µM (inactive) | GI50 [16]: > 100 µM (inactive) | GI50 [17]: > 100 µM (inactive) | GI50 [18]: > 100 µM (inactive) | GI50 [19]: > 100 µM (inactive) | GI50 [20]: > 100 µM (inactive) | GI50 [48]: > 100 µM (inactive) | GI50 [49]: > 100 µM (inactive) | GI50 [50]: > 100 µM (inactive) | GI50 [21]: > 100 µM (inactive) | GI50 [22]: > 100 µM (inactive) | GI50 [24]: > 100 µM (inactive) | GI50 [25]: > 100 µM (inactive) | GI50 [51]: > 100 µM (inactive) | GI50 [26]: > 100 µM (inactive) | GI50 [52]: > 100 µM (inactive) | GI50 [53]: > 100 µM (inactive) | GI50 [27]: > 100 µM (inactive) | GI50 [28]: > 100 µM (inactive) | GI50 [29]: > 100 µM (inactive) | GI50 [30]: > 100 µM (inactive) | GI50 [32]: > 100 µM (inactive) | GI50 [54]: > 100 µM (inactive) | GI50 [33]: > 100 µM (inactive) | GI50 [34]: > 100 µM (inactive) | GI50 [55]: > 100 µM (inactive) | GI50 [35]: > 100 µM (inactive) | GI50 [56]: > 100 µM (inactive) | GI50 [36]: > 100 µM (inactive) | GI50 [37]: > 100 µM (inactive) | GI50 [38]: > 100 µM (inactive) | GI50 [40]: > 100 µM (inactive) | GI50 [41]: > 100 µM (inactive)
